The test deals with WEEV replicon. Kind of test: microbe, parasite or virus in culture. It is filed as cell-based, Western equine encephalitis virus. The following applies: Western equine encephalitis virus; for activity at 50 µM: read-out: 50 μM (% control) Luc.

A word on the IC50: it is the concentration that gives 50% inhibition. Low values mean greater potency in that assay, high ones weaker potency in that assay. As to `Cn1ccc(CNC(=O)C2CCN(C(=O)c3cc4ccccc4n3Cc3ccc(Cl)cc3)CC2)n1` [CCG 205454, 1-(1-(4-chlorobenzyl)-1H-indole-2-carbonyl)-N-((1-methyl-1H-pyrazol-3-yl)methyl)piperidine-4-carboxamide], it took 76.9 µM to reach half-maximal inhibition (IC50) and the activity at 50 µM was 46.6%.

Consider `Cn1cnc(CNC(=O)C2CCN(C(=O)c3cc4ccccc4n3Cc3ccc(Cl)cc3)CC2)c1` [CCG 205455, 1-(1-(4-chlorobenzyl)-1H-indole-2-carbonyl)-N-((1-methyl-1H-imidazol-4-yl)methyl)piperidine-4-carboxamide], for which the activity at 50 µM amounted to 50.8%.

With `O=C(NCCc1ccccn1)C1CCN(C(=O)c2cc3ccccc3n2Cc2ccc(Cl)cc2)CC1` [CCG 205456, 1-(1-(4-chlorobenzyl)-1H-indole-2-carbonyl)-N-(2-(pyridin-2-yl)ethyl)piperidine-4-carboxamide], the IC50 is 22.4 µM and the activity at 50 µM stood at 24.1%.

Consider `O=C(c1cc2ccccc2n1Cc1ccc(Cl)cc1)N1CCC(C(=O)N2Cc3ccccc3C2)CC1` [CCG 205470, (1-(4-chlorobenzyl)-1H-indol-2-yl)(4-(isoindoline-2-carbonyl)piperidin-1-yl)methanone], for which the activity at 50 µM came out at 51.8%.

Regarding `O=C(NC1Cc2ccccc2C1)C1CCN(C(=O)c2cc3ccccc3n2Cc2ccc(Cl)cc2)CC1` [CCG 205471, 1-(1-(4-chlorobenzyl)-1H-indole-2-carbonyl)-N-(2,3-dihydro-1H-inden-2-yl)piperidine-4-carboxamide], the activity at 50 µM was found to be 60.9%.

For the compound `O=C(c1cc2ccccc2n1Cc1ccc(Cl)cc1)N1CCC(C(=O)N2CCCC2c2ccccc2)CC1` (stereo not shown) [CCG 205473, (1-(4-chlorobenzyl)-1H-indol-2-yl)(4-(2-phenylpyrrolidine-1-carbonyl)piperidin-1-yl)methanone], the activity at 50 µM came to 33.9%.

Consider `O=C(c1cc2ccccc2n1Cc1ccc(Cl)cc1)N1CCC(C(=O)N2CCC(c3ccccc3)C2)CC1` (stereo not shown) [CCG 205474, (1-(4-chlorobenzyl)-1H-indol-2-yl)(4-(3-phenylpyrrolidine-1-carbonyl)piperidin-1-yl)methanone], for which the activity at 50 µM came out at 57.1%.

Turning to `O=C(c1cc2ccccc2n1Cc1ccc(Cl)cc1)N1CCC(CN2CCCCC2)CC1` [CCG 205476, (1-(4-chlorobenzyl)-1H-indol-2-yl)(4-(piperidin-1-ylmethyl)piperidin-1-yl)methanone], the IC50 stood at 9.8 µM and the activity at 50 µM is 6.5%.

`COc1ccc(Cn2c(C(=O)N3CCC(C(=O)N(C)Cc4ccccc4)CC3)cc3ccccc32)cc1` [CCG 205477, N-benzyl-1-(1-(4-methoxybenzyl)-1H-indole-2-carbonyl)-N-methylpiperidine-4-carboxamide]: the IC50 was 16.5 µM and the activity at 50 µM was 33.3%.

Consider `O=C(NCc1ccccc1)C1CCCN(C(=O)c2cc3ccccc3n2Cc2ccc(Cl)cc2)C1` (stereo not shown) [CCG 205483, N-benzyl-1-(1-(4-chlorobenzyl)-1H-indole-2-carbonyl)piperidine-3-carboxamide], for which the IC50 was 30.6 µM and the activity at 50 µM was found to be 44.1%.

Turning to `CN(Cc1ccccc1)C(=O)C1CCN(C(=O)c2cc3ccccc3n2Cc2ccc([N+](=O)[O-])cc2)CC1` [CCG 205484, N-benzyl-N-methyl-1-(1-(4-nitrobenzyl)-1H-indole-2-carbonyl)piperidine-4-carboxamide], the IC50 came to 41.9 µM and the activity at 50 µM was found to be 54%.

Take `O=C(c1cc2ccccc2n1Cc1ccc(Cl)cc1)N1CCN(Cc2ccccc2)CC1` [CCG 206327, (4-benzylpiperazin-1-yl)(1-(4-chlorobenzyl)-1H-indol-2-yl)methanone]: the midpoint of inhibition, the IC50, lay at 11.5 µM and the activity at 50 µM worked out at 33.3%.

As for `CC(NC(=O)C1CCN(C(=O)c2cc3ccccc3n2Cc2ccc(Cl)cc2)CC1)c1ccncc1` (stereo not shown) [CCG 206329, 1-(1-(4-chlorobenzyl)-1H-indole-2-carbonyl)-N-(1-(pyridin-4-yl)ethyl)piperidine-4-carboxamide], the IC50 amounted to 2.39 µM and the activity at 50 µM came to 12.7%.

Take `CN(Cc1ccccc1)C(=O)C1CCN(C(=O)c2cc3ccccc3n2Cc2ccc(C#N)cc2)CC1` [CCG 206330, N-benzyl-1-(1-(4-cyanobenzyl)-1H-indole-2-carbonyl)-N-methylpiperidine-4-carboxamide]: the IC50 amounted to 79.3 µM and the activity at 50 µM came to 45.2%.

Consider `COCCn1c(C(=O)N2CCC(C(=O)N(C)Cc3ccccc3)CC2)cc2ccccc21` [CCG 206331, N-benzyl-1-(1-(2-methoxyethyl)-1H-indole-2-carbonyl)-N-methylpiperidine-4-carboxamide], for which the activity at 50 µM stood at 74.5%.

`CC(C)Cn1c(C(=O)N2CCC(C(=O)N(C)Cc3ccccc3)CC2)cc2ccccc21` [CCG 206332, N-benzyl-1-(1-isobutyl-1H-indole-2-carbonyl)-N-methylpiperidine-4-carboxamide]: half-maximal inhibition (IC50) was put at 27.9 µM and the activity at 50 µM was found to be 1.7%.

As for `CC(=O)n1c(C(=O)N2CCC(C(=O)N(C)Cc3ccccc3)CC2)cc2ccccc21` [CCG 206333, 1-(1-acetyl-1H-indole-2-carbonyl)-N-benzyl-N-methylpiperidine-4-carboxamide], the activity at 50 µM is 58.5%.

For the compound `O=C(Nc1ccccc1)C1CCN(C(=O)c2cc3ccccc3n2Cc2ccc(Cl)cc2)CC1` [CCG 206334, 1-(1-(4-chlorobenzyl)-1H-indole-2-carbonyl)-N-phenylpiperidine-4-carboxamide], the activity at 50 µM worked out at 77.3%.

For the compound `O=C(NCCc1ccncc1)C1CCN(C(=O)c2cccn2Cc2ccc(Cl)cc2)CC1` [CCG 206381, 1-(1-(4-chlorobenzyl)-1H-pyrrole-2-carbonyl)-N-(2-(pyridin-4-yl)ethyl)piperidine-4-carboxamide], the IC50 was found to be 0.68 µM and the activity at 50 µM was 9.9%.

With `O=C(NCC1Cc2ccccc2C1)C1CCN(C(=O)c2cc3ccccc3n2Cc2ccc(Cl)cc2)CC1` [CCG 206382, 1-(1-(4-chlorobenzyl)-1H-indole-2-carbonyl)-N-((2,3-dihydro-1H-inden-2-yl)methyl)piperidine-4-carboxamide], the IC50 came to 0.53 µM and the activity at 50 µM came to 25.8%.

As for `COc1cccc(CCNC(=O)C2CCN(C(=O)c3cc4ccccc4n3Cc3ccc(Cl)cc3)CC2)c1` [CCG 206395, 1-(1-(4-chlorobenzyl)-1H-indole-2-carbonyl)-N-(3-methoxyphenethyl)piperidine-4-carboxamide], half-maximal inhibition (IC50) required 11.7 µM and the activity at 50 µM came out at 38.4%.

For `O=C(NCCc1ccc(F)cc1)C1CCN(C(=O)c2cc3ccccc3n2Cc2ccc(Cl)cc2)CC1` [CCG 206396, 1-(1-(4-chlorobenzyl)-1H-indole-2-carbonyl)-N-(4-fluorophenethyl)piperidine-4-carboxamide], it took 10.6 µM to reach half-maximal inhibition (IC50) and the activity at 50 µM came to 34.9%.

For the compound `O=C(NCCc1ccccc1)C1CCN(C(=O)c2cc3ccccc3n2Cc2ccc(Cl)cc2)CC1` [CCG 206397, 1-(1-(4-chlorobenzyl)-1H-indole-2-carbonyl)-N-phenethylpiperidine-4-carboxamide], 15.2 µM corresponded to half-maximal inhibition (IC50) and the activity at 50 µM came out at 40.2%.

With `COc1ccc(CCNC(=O)C2CCN(C(=O)c3cc4ccccc4n3Cc3ccc(Cl)cc3)CC2)cc1` [CCG 206398, 1-(1-(4-chlorobenzyl)-1H-indole-2-carbonyl)-N-(4-methoxyphenethyl)piperidine-4-carboxamide], half-maximal inhibition (IC50) was put at 7.1 µM and the activity at 50 µM stood at 12.9%.

Regarding `O=C(NCc1cccc(F)c1)C1CCN(C(=O)c2cc3ccccc3n2Cc2ccc(Cl)cc2)CC1` [CCG 206399, 1-(1-(4-chlorobenzyl)-1H-indole-2-carbonyl)-N-(3-fluorobenzyl)piperidine-4-carboxamide], the activity at 50 µM was 50.4%.

Take `O=C(NCCc1ccc(Cl)cc1)C1CCN(C(=O)c2cc3ccccc3n2Cc2ccc(Cl)cc2)CC1` [CCG 206400, 1-(1-(4-chlorobenzyl)-1H-indole-2-carbonyl)-N-(4-chlorophenethyl)piperidine-4-carboxamide]: half-maximal inhibition (IC50) was put at 7.45 µM and the activity at 50 µM came out at 28.6%.

Turning to `C#CCn1c(C(=O)N2CCC(C(=O)N(C)Cc3ccccc3)CC2)cc2ccccc21` [CCG 206401, N-benzyl-N-methyl-1-(1-(prop-2-yn-1-yl)-1H-indole-2-carbonyl)piperidine-4-carboxamide], the activity at 50 µM stood at 57.4%.

`Cc1cccc2cc(C(=O)N3CCC(C(=O)NCc4ccccc4)CC3)n(Cc3ccc(Cl)cc3)c12` [CCG 206447, N-benzyl-1-(1-(4-chlorobenzyl)-7-methyl-1H-indole-2-carbonyl)piperidine-4-carboxamide]: 60.7 µM corresponded to half-maximal inhibition (IC50) and the activity at 50 µM was found to be 46.8%.

Turning to `CC(C)c1ccc(CCNC(=O)C2CCN(C(=O)c3cc4ccccc4n3Cc3ccc(Cl)cc3)CC2)cc1` [CCG 206461, 1-(1-(4-chlorobenzyl)-1H-indole-2-carbonyl)-N-(4-isopropylphenethyl)piperidine-4-carboxamide], the IC50 amounted to 2.9 µM and the activity at 50 µM is 32.6%.

In the case of `O=C(c1cc2ccccc2n1Cc1ccc(Cl)cc1)N1CCC2C(=O)N(Cc3ccccc3)CC2C1` (stereo not shown) [CCG 206485, 2-benzyl-5-(1-(4-chlorobenzyl)-1H-indole-2-carbonyl)octahydro-1H-pyrrolo[3,4-c]pyridin-1-one], the IC50 worked out at 17.1 µM and the activity at 50 µM was determined as 39.4%.

With `Cc1ccc(CCNCC2CCN(C(=O)c3cc4ccccc4n3Cc3ccc(F)cc3)CC2)cc1` [CCG 206486, (1-(4-fluorobenzyl)-1H-indol-2-yl)(4-(((4-methylphenethyl)amino)methyl)piperidin-1-yl)methanone], the IC50 amounted to 6.1 µM and the activity at 50 µM is 0%.

As for `C[C@@H](NCC1CCN(C(=O)c2cc3ccccc3n2Cc2ccc(F)cc2)CC1)c1ccccc1` [CCG 206499, (R)-(1-(4-fluorobenzyl)-1H-indol-2-yl)(4-(((1-phenylethyl)amino)methyl)piperidin-1-yl)methanone], the activity at 50 µM stood at 0%.

With `O=C(c1cc2ccccc2n1Cc1ccc(F)cc1)N1CCC(CNCc2ccccc2)CC1` [CCG 206500, (4-((benzylamino)methyl)piperidin-1-yl)(1-(4-fluorobenzyl)-1H-indol-2-yl)methanone], the IC50 came to 6.5 µM and the activity at 50 µM was determined as 0%.

The record behind these values is US8846684B2 (priority 2011, dated 2014).
